Measurements published in patent publication US8916702B2 (priority 2012, dated 2014).

tested on: HCV pseudoparticles (genotype 1a HCV E1 and E2 envelope, H77C isolate); assay: microbe, parasite or virus in culture; type: cell-based; details: Hepatitis C virus, Huh-7, 48 h, HCV pseudoparticle infection of Huh7 cells, luciferase 2 days after infection; average of duplicates

| SMILES | EC50 |
| --- | --- |
| C[C@H](NC(=O)C(=O)NCC[C@H](NC(=O)c1ccc(Nc2nc(NC3(c4ccc(Cl)cc4)CC3)nc(OCC(F)(F)F)n2)cc1)C(=O)O)C1CC1 [Compound 1435] | 0.11 nM |
| O=C(NCCc1ccc(F)cc1)C(=O)NCC[C@H](NC(=O)c1ccc(Nc2nc(NC3(c4ccc(Cl)cc4)CC3)nc(OCC(F)(F)F)n2)cc1)C(=O)O [Compound 1336] | 0.88 nM |

same assay, conditions: Hepatitis C virus, Huh-7, 48 h, HCV pseudoparticles (genotype 1a, H77C) in Huh7 cells; average of duplicate; luciferase 2 days after infection

| SMILES | EC50 |
| --- | --- |
| Cc1ccc(NC(=O)C(=O)NCCCNC(=O)c2ccc(Nc3nc(NC4(c5ccc(Cl)cc5)CC4)nc(OCC(F)(F)F)n3)cc2)cc1 [Compound 3358] | 0.034 nM |
| O=C(NC/C(=N/C(=O)c1ccc(Nc2nc(NC3(c4ccc(Cl)cc4)CC3)nc(OCC(F)(F)F)n2)cc1)C(=O)O)C(=O)Nc1ccc(CCO)cc1 [Compound 3154] | 1.44 nM |

same assay, conditions: Hepatitis C virus, Huh-7, 48 h, HCV pseudoparticles, Huh7 cells, luciferase 2 days after infection; average of duplicates

| SMILES | EC50 |
| --- | --- |
| CC(C)c1cccc(NC(=O)C(=O)NCC[C@H](NC(=O)c2ccc(Nc3nc(NC4(c5ccc(Cl)cc5)CC4)nc(OCC(F)(F)F)n3)cc2)C(=O)O)c1 [Compound 3627] | 0.1 nM |

same assay, conditions: Hepatitis C virus, Huh-7, 48 h, read-out: Activity (EC50 class), HCV pseudoparticle infection of Huh7 cells, luciferase 2 days after infection; EC50 expressed as class A/B

| SMILES | EC50 |
| --- | --- |
| O=C(NC[C@H](NC(=O)c1ccc(Nc2nc(NC3(c4ccc(Cl)cc4)CC3)nc(OCC(F)(F)F)n2)cc1)C(=O)O)C(=O)Nc1cccc(C(F)(F)F)c1 [Compound 1359] | 0.01 to 10 nM |
| C[C@H](NC(=O)C(=O)NCC[C@H](NC(=O)c1ccc(Nc2nc(NC3(c4ccc(Cl)cc4)CC3)nc(OCC(F)(F)F)n2)cc1)C(=O)O)C1CC1 [Compound 1435] | 0.01 to 10 nM |
| COC(=O)[C@H](CCNC(=O)C(=O)NCc1cccc(OC)c1)NC(=O)c1ccc(Nc2nc(NC3(c4ccc(Cl)cc4)CC3)nc(OCC(F)(F)F)n2)cc1 [Compound 1156] | 0.01 to 10 nM |
| O=C(NCc1ccccc1)C(=O)NC[C@H](NC(=O)c1ccc(Nc2nc(NC3(c4ccc(Cl)cc4)CC3)nc(OCC(F)(F)F)n2)cc1)C(=O)O [Compound 1164] | 0.01 to 10 nM |
| COC(=O)[C@H](CCNC(=O)C(=O)NCc1ccc(F)cc1F)NC(=O)c1ccc(Nc2nc(NC3(c4ccc(Cl)cc4)CC3)nc(OCC(F)(F)F)n2)cc1 [Compound 1161] | 0.01 to 10 nM |
| O=C(NCC[C@H](NC(=O)c1ccc(Nc2nc(NC3(c4ccc(Cl)cc4)CC3)nc(OCC(F)(F)F)n2)cc1)C(=O)O)C(=O)Nc1cc(F)ccc1F [Compound 1513] | 0.01 to 10 nM |
| Cn1ccc(NC(=O)C(=O)NC[C@H](NC(=O)c2ccc(Nc3nc(NC4(c5ccc(Cl)cc5)CC4)nc(OCC(F)(F)F)n3)cc2)C(=O)O)n1 [Compound 1351] | 0.01 to 10 nM |
| O=C(NCCc1ccc(F)cc1)C(=O)NCC[C@H](NC(=O)c1ccc(Nc2nc(NC3(c4ccc(Cl)cc4)CC3)nc(OCC(F)(F)F)n2)cc1)C(=O)O [Compound 1336] | 0.01 to 10 nM |
| CC(C)CNC(=O)C(=O)NCC(C)(C)CNC(=O)c1ccc(Nc2nc(NC3(c4ccc(Cl)cc4)CC3)nc(OCC(F)(F)F)n2)cc1 [Compound 1551] | 0.01 to 10 nM |
| O=C(NCC[C@H](NC(=O)c1ccc(Nc2nc(NC3(c4ccc(Cl)cc4)CC3)nc(OCC(F)(F)F)n2)cc1)C(=O)O)C(=O)NCC1CCc2ccccc21 (stereo partly drawn) [Compound 1345] | 0.01 to 10 nM |
| CN(C)C(=O)C(=O)NCC[C@H](NC(=O)c1ccc(Nc2nc(NC3(c4ccc(Cl)cc4)CC3)nc(OCC(F)(F)F)n2)cc1)C(=O)O [Compound 1015, (S)-2-(4-(4-(1-(4-chlorophenyl)cyclopropylamino)-6-(2,2,2-trifluoroethoxy)-1,3,5-triazin-2-ylamino)benzamido)-4-(2-(dimethylamino)-2-oxoacetamido)butanoic acid] | 0.01 to 10 nM |
| O=C1CC(NC(=O)C(=O)NC[C@H](NC(=O)c2ccc(Nc3nc(NC4(c5ccc(Cl)cc5)CC4)nc(OCC(F)(F)F)n3)cc2)C(=O)O)CCN1 (stereo partly drawn) [Compound 1082] | 0.01 to 10 nM |
| CNC(=O)C(=O)NCC[C@H](NC(=O)c1ccc(Nc2nc(NC3(c4ccc(Cl)cc4)CC3)nc(OCC(F)(F)F)n2)cc1)C(=O)O [Compound 1014, (S)-2-(4-(4-(1-(4-chlorophenyl)cyclopropylamino)-6-(2,2,2-trifluoroethoxy)-1,3,5-triazin-2-ylamino)benzamido)-4-(2-(methylamino)-2-oxoacetamido)butanoic acid] | 0.01 to 10 nM |
| O=C1CC(NC(=O)C(=O)NCC[C@H](NC(=O)c2ccc(Nc3nc(NC4(c5ccc(Cl)cc5)CC4)nc(OCC(F)(F)F)n3)cc2)C(=O)O)CCN1 (stereo partly drawn) [Compound 1116] | 10 to 1000 nM |
| COC(=O)[C@H](CNC(=O)C(=O)NCc1cccc(F)c1)NC(=O)c1ccc(Nc2nc(NC3(c4ccc(Cl)cc4)CC3)nc(OCC(F)(F)F)n2)cc1 [Compound 1131] | 0.01 to 10 nM |
| CC1(C)C(CNC(=O)C(=O)NCC[C@@H](NC(=O)c2ccc(Nc3nc(NC4(c5ccc(Cl)cc5)CC4)nc(OCC(F)(F)F)n3)cc2)C(=O)O)C1(C)C [Compound 1449] | 0.01 to 10 nM |
| COC(=O)[C@@H](CCNC(=O)C(=O)Nc1ccc(-c2noc(C)n2)cc1)NC(=O)c1ccc(Nc2nc(NC3(c4ccc(Cl)cc4)CC3)nc(OCC(F)(F)F)n2)cc1 [Compound 1529] | 0.01 to 10 nM |
| O=C(NCC[C@H](NC(=O)c1ccc(Nc2nc(NC3(c4ccc(Cl)cc4)CC3)nc(OCC(F)(F)F)n2)cc1)C(=O)O)C(=O)NCC1CC1 [Compound 1206] | 0.01 to 10 nM |

same assay, conditions: Hepatitis C virus, Huh-7, 48 h, read-out: Activity (EC50 class), HCV pseudoparticles, Huh7 cells, luciferase 2 days after infection; average of duplicates

| SMILES | EC50 |
| --- | --- |
| O=C(NC[C@H](NC(=O)c1ccc(Nc2nc(NC3(c4ccc(Cl)cc4)CC3)nc(OCC(F)(F)F)n2)cc1)C(=O)O)C(=O)Nc1cccc(S(=O)(=O)c2ccccc2)c1 [Compound 3757] | 0.01 to 10 nM |
| O=C(NC[C@H](NC(=O)c1ccc(Nc2nc(NC3(c4ccc(Cl)cc4)CC3)nc(OCC(F)(F)F)n2)cc1)C(=O)O)C(=O)Nc1ccc(Oc2ccc(Cl)cc2Cl)cc1 [Compound 3753] | 0.01 to 10 nM |
| CC(C)c1cccc(NC(=O)C(=O)NCC[C@H](NC(=O)c2ccc(Nc3nc(NC4(c5ccc(Cl)cc5)CC4)nc(OCC(F)(F)F)n3)cc2)C(=O)O)c1 [Compound 3627] | 0.01 to 10 nM |
| COC(=O)[C@H](CNC(=O)C(=O)Nc1cccc(C(C)(C)C)c1)NC(=O)c1ccc(Nc2nc(NC3(c4ccc(Cl)cc4)CC3)nc(OCC(F)(F)F)n2)cc1 [Compound 3704] | 0.01 to 10 nM |
| CC(C)(CNC(=O)C(=O)Nc1nc2cc(F)ccc2s1)CNC(=O)c1ccc(Nc2nc(NC3(c4ccc(Cl)cc4)CC3)nc(OCC(F)(F)F)n2)cc1 [Compound 3810] | 0.01 to 10 nM |
| COc1ccc2sc(NC(=O)C(=O)NCC(C)(C)CNC(=O)c3ccc(Nc4nc(NC5(c6ccc(Cl)cc6)CC5)nc(OCC(F)(F)F)n4)cc3)nc2c1 [Compound 3806] | 0.01 to 10 nM |
| CCN(CC)CCOc1cccc(NC(=O)C(=O)NC[C@H](NC(=O)c2ccc(Nc3nc(NC4(c5ccc(Cl)cc5)CC4)nc(OCC(F)(F)F)n3)cc2)C(=O)Cl)c1 [Compound 3788] | 0.01 to 10 nM |

same assay, conditions: Hepatitis C virus, Huh-7, read-out: Activity (EC50 class), HCV pseudoparticles (genotype 1a, H77C) in Huh7 cells; EC50 expressed as class A/B

| SMILES | EC50 |
| --- | --- |
| O=C(NCC[C@H](NC(=O)c1ccc(Nc2nc(NC3(c4ccc(Cl)cc4)CC3)nc(OCC(F)(F)F)n2)cc1)C(=O)O)C(=O)Nc1ccc(OC2CCOCC2)cc1 [Compound 3546] | 0.01 to 10 nM |
| CC(C)(CNC(=O)C(=O)Nc1ccc2c(c1)COC2=O)CNC(=O)c1ccc(Nc2nc(NC3(c4ccc(Cl)cc4)CC3)nc(OCC(F)(F)F)n2)cc1 [Compound 3359] | 0.01 to 10 nM |
| O=C(NCCCCNC(=O)c1ccc(Nc2nc(NC3(c4ccc(Cl)cc4)CC3)nc(OCC(F)(F)F)n2)cc1)C(=O)NCc1ccc(F)cc1 [Compound 3392] | 0.01 to 10 nM |
| CCOCCOc1ccc(NC(=O)C(=O)NCC[C@H](NC(=O)c2ccc(Nc3nc(NC4(c5ccc(Cl)cc5)CC4)nc(OCC(F)(F)F)n3)cc2)C(=O)OC)cc1 [Compound 3309] | 0.01 to 10 nM |
| Cc1ccc(NC(=O)C(=O)NCCCNC(=O)c2ccc(Nc3nc(NC4(c5ccc(Cl)cc5)CC4)nc(OCC(F)(F)F)n3)cc2)cc1 [Compound 3358] | 0.01 to 10 nM |
| CC(=O)c1ccccc1NC(=O)C(=O)NCC(C)(C)CNC(=O)c1ccc(Nc2nc(NC3(c4ccc(Cl)cc4)CC3)nc(OCC(F)(F)F)n2)cc1 [Compound 3377] | 0.01 to 10 nM |
| COC(=O)[C@H](CNC(=O)C(=O)Nc1ccc(S(=O)(=O)N2CCCC2)cc1)NC(=O)c1ccc(Nc2nc(NC3(c4ccc(Cl)cc4)CC3)nc(OCC(F)(F)F)n2)cc1 [Compound 3106] | 0.01 to 10 nM |
| COc1cccc(NC(=O)C(=O)NCC(C)(C)CNC(=O)c2ccc(Nc3nc(NC4(c5ccc(Cl)cc5)CC4)nc(OCC(F)(F)F)n3)cc2)n1 [Compound 3252] | 0.01 to 10 nM |
| O=C(NC/C(=N/C(=O)c1ccc(Nc2nc(NC3(c4ccc(Cl)cc4)CC3)nc(OCC(F)(F)F)n2)cc1)C(=O)O)C(=O)Nc1ccc(CCO)cc1 [Compound 3154] | 0.01 to 10 nM |
| COCc1ccc(NC(=O)C(=O)NC[C@H](NC(=O)c2ccc(Nc3nc(NC4(c5ccc(Cl)cc5)CC4)nc(OCC(F)(F)F)n3)cc2)C(=O)O)cc1 [Compound 3288] | 0.01 to 10 nM |
| CC(C)(CNC(=O)C(=O)Oc1cncs1)CNC(=O)c1ccc(Nc2nc(NC3(c4ccc(Cl)cc4)CC3)nc(OCC(F)(F)F)n2)cc1 [Compound 3179] | 0.01 to 10 nM |
| COC(=O)[C@H](CNC(=O)C(=O)Nc1ccc(Cn2ccnc2C)cc1)NC(=O)c1ccc(Nc2nc(NC3(c4ccc(Cl)cc4)CC3)nc(OCC(F)(F)F)n2)cc1 [Compound 3204] | 0.01 to 10 nM |
| COc1cc(NC(=O)C(=O)NCC(C)(C)CNC(=O)c2ccc(Nc3nc(NC4(c5ccc(Cl)cc5)CC4)nc(OCC(F)(F)F)n3)cc2)ccc1F [Compound 3069] | 0.01 to 10 nM |
| CC(C)(CNC(=O)C(=O)Nc1ncco1)CNC(=O)c1ccc(Nc2nc(NC3(c4ccc(Cl)cc4)CC3)nc(OCC(F)(F)F)n2)cc1 [Compound 3027] | 0.01 to 10 nM |
| O=C(Nc1ccccc1)C(=O)N[C@H](CCNC(=O)c1ccc(Nc2nc(NC3(c4ccc(Cl)cc4)CC3)nc(OCC(F)(F)F)n2)cc1)C(=O)O [Compound 3494] | 0.01 to 10 nM |
| COC(=O)[C@H](CNC(=O)C(=O)Nc1ccc(-c2cnco2)cc1)NC(=O)c1ccc(Nc2nc(NC3(c4ccc(Cl)cc4)CC3)nc(OCC(F)(F)F)n2)cc1 [Compound 3093] | 0.01 to 10 nM |
| CC(C)(CNC(=O)c1ccc(Nc2nc(NC3(c4ccc(Cl)cc4)CC3)nc(OCC(F)(F)F)n2)cc1)NC(=O)C(N)=O [Compound 3420] | 0.01 to 10 nM |
| O=C(NCCCCNC(=O)c1ccc(Nc2nc(NC3(c4ccc(Cl)cc4)CC3)nc(OCC(F)(F)F)n2)cc1)C(=O)NC1CCCCC1 [Compound 3398] | 0.01 to 10 nM |
| O=C(Cc1nccs1)C(=O)NCC(O)CNC(=O)c1ccc(Nc2nc(NC3(c4ccc(Cl)cc4)CC3)nc(OCC(F)(F)F)n2)cc1 (stereo not drawn) [Compound 3462] | 0.01 to 10 nM |
| CC(C)(CNC(=O)C(=O)Nc1ccc(S(C)(=O)=O)cc1)CNC(=O)c1ccc(Nc2nc(NC3(c4ccc(Cl)cc4)CC3)nc(OCC(F)(F)F)n2)cc1 [Compound 3254] | 0.01 to 10 nM |
| COC(=O)[C@H](CNC(=O)C(=O)Nc1ccc(Oc2ccncc2)cc1)NC(=O)c1ccc(Nc2nc(NC3(c4ccc(Cl)cc4)CC3)nc(OCC(F)(F)F)n2)cc1 [Compound 3206] | 0.01 to 10 nM |
